These results are taken from article PMC8035258 (ChemMedChem, 2021).

One assay has as its system TTK. The conditions noted are these: 100 μM, KinomeScan; cited from earlier work.
Assay [1] has as its target Mitochondrial respiratory complex II (Mus musculus, UniProt Q8K2B3+Q9CQA3+Q9CXV1+Q9CZB0). The assay can be described thus: Complex II inhibition assay. In kind it is biochemical. The conditions noted are these: for % Inhibition CII (100 μM) / inhibition at 100 µM: mouse liver mitochondria, mean ±SD of n = 4; for inhibition at 100 µM: read-out: % Inhibition CII (100 μM), 100 μM.

The subject of assay [2] is CII. The conditions noted are these: read-out: CII IC50; rat heart mitochondria; cited from earlier work.
For the next assay, the system named is breast cancer. The following applies: 200–300 mg/day, nine patients, stable disease for 4–8 months; cited from earlier work.
Assay [3] deals with 22Rv1 prostate cancer cells. The assay is described as follows: MTS cytotoxicity assay in 22Rv1 prostate cancer cells. It is filed as cell-based. The conditions noted are these: for reduction of 22Rv1 cell viability: 100 μM, 48 hr treatment, MTS. Background: Tetrazolium assays rely on reduction of a dye to a coloured formazan, in cell work by metabolically active cells.
The test system of another assay is TNBC MDA-MB-468 cells. The assay can be described thus: MTS cytotoxicity assay in MDA-MB-468 cells. The conditions noted are these: for SI (Selectivity Index): MDA-MB-468 over HEK293 cells; for IC50: read-out: MDA-MB-468 IC50, 72 hours, mean ±SD of n=3. In kind it is cell-based.
Assay [4] deals with low tumorigenic human endothelial kidney (HEK293) cells. The assay can be described thus: MTS cytotoxicity assay in HEK293 cells. In kind it is cell-based. The following applies: Homo sapiens, HEK293, 72 h, read-out: HEK293 IC50.
A further assay has as its system IRAK1. The conditions noted are these: 100 μM, KinomeScan; cited from earlier work.
Assay [5] concerns CII. The conditions noted are these: read-out: CII IC50, cited from earlier work.
The subject of assay [6] is 22Rv1 prostate cancer cells. The conditions noted are these: read-out: 22Rv1 IC50, clinical agents; cited from earlier work.

A word on the IC50: it is the midpoint of a concentration-inhibition curve. Broadly, the inhibition is the share of the control response that was lost under treatment.

Structures are written as SMILES. Like-named read-outs stand apart in the source and are kept apart here.

Mitochondrial respiratory complex II, sequence (Q8K2B3 43-664): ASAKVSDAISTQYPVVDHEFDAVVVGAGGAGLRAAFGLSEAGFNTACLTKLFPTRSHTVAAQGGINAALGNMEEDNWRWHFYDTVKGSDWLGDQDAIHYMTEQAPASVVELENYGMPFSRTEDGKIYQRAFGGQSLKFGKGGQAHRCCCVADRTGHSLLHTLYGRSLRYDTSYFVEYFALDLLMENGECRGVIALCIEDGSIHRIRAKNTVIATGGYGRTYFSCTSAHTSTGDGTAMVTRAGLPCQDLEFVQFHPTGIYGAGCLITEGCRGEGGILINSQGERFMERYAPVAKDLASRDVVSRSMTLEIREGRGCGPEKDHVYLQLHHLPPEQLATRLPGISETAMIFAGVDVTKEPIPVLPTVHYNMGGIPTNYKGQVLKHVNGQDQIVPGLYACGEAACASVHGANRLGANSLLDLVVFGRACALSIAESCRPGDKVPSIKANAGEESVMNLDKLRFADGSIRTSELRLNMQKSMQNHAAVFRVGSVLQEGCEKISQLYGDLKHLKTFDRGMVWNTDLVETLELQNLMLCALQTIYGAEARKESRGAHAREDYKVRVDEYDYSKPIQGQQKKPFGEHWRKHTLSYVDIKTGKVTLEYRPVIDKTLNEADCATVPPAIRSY
Mitochondrial respiratory complex II, sequence (Q9CQA3 31-282): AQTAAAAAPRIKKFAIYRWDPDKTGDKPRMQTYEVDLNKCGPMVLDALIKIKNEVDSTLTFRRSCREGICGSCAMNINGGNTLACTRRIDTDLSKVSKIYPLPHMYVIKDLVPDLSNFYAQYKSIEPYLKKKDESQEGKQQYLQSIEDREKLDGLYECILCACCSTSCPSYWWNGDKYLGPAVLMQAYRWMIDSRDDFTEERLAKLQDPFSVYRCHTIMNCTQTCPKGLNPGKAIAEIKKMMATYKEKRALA
Mitochondrial respiratory complex II, sequence (Q9CZB0 30-169): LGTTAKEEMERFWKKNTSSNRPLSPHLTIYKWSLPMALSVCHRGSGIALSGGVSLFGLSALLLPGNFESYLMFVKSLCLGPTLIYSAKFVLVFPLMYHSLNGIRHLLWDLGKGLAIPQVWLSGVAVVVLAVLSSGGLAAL
Mitochondrial respiratory complex II, sequence (Q9CXV1 57-159): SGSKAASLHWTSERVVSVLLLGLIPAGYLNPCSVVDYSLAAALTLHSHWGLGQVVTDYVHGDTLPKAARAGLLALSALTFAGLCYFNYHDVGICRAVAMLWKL

On to `CC1=Nc2ccc(Cl)cc2S(=O)(=O)N1` [Diazoxide, 7-chloro-3-methyl-2H-1,2,4-benzothiadiazine 1,1-dioxide, reference compound], for which the kinase inhibition in the assay on TTK is 15%; in the assay on IRAK1, 9%. Besides, the IC50 in [1] is 1236 ± 2.5 µM; with CII [2], 32 µM; in the assay with TNBC MDA-MB-468 cells, 434 ± 26.2 µM; in assay [4] it was 547 ± 34.1 µM. For the same compound, in [1] (listed as DZX), the “% Inhibition CII (100 μM)” value was “no CII inhibition activity”. The inhibition at 100 µM in [1] was found to be 9%. Further, the response rate with breast cancer is listed as 33%. Also, the “effect to reduce cell viability of prostate cancer cells” value in [3] (100 μM up to 72 hours) is listed as “no effect”. The “effect to reduce cell viability of breast cancer cells” value with TNBC MDA-MB-468 cells (100 μM up to 72 hours) is “no effect”. In the assay on TNBC MDA-MB-468 cells, the “SI (Selectivity Index)” value is 1.26.
Take `CC(NC1=NS(=O)(=O)c2cc(Br)ccc2N1)c1ccccc1` (stereo not shown) [Compound 24c, 7-Bromo-3-((1-phenylethyl)amino)-4H-benzo[e][1,2,4]thiadiazine 1,1-dioxide]: the IC50 in assay [1] was 79.8 ± 4.1 µM; in assay [3] (Homo sapiens, 22Rv1, read-out: 22Rv1 IC50), 38.9 ± 3.2 µM; in assay [4], 32.2 ± 1.5 µM. Moreover, the inhibition at 100 µM in [1] came to 55 ± 8.2%. The “reduction of 22Rv1 cell viability” value in assay [3] is 70%. The “SI (Selectivity Index)” value in the assay with TNBC MDA-MB-468 cells is 11.
For `O=C(O)CC(=O)O` [Malonate], the concentration for half-maximal inhibition (IC50) with CII [5] (competitive CII inhibitor) is 40 µM.
Take `O=S1(=O)N=C(NCc2ccc(OC(F)(F)F)cc2)Nc2ccc(Br)cc21` [Compound 30c, 7-Bromo-3-((4-(trifluoromethoxy)benzyl)amino)-4H-benzo[e][1,2,4] thiadiazine 1,1-dioxide]: in assay [1], the “% Inhibition CII (100 μM)” value worked out at 22 ±21.1% and the inhibition at 100 µM amounted to 21%. In addition, the “reduction of 22Rv1 cell viability” value in assay [3] is 45%. In addition, in the assay on TNBC MDA-MB-468 cells, the “SI (Selectivity Index)” value was 2.93 and the IC50 is 18 ± 1.4 µM. In assay [4], the 50% inhibitory concentration (IC50) is 52.9 ± 1.8 µM.
In the case of `O=C(CC(=O)C(F)(F)F)c1cccs1` [TFFA, Thenoyltrifluoroacetone], the IC50 in the assay on CII [5] (control compound in CII assays) was 30 µM.
In the case of `Cc1c(C)c2c(c(C)c1OC(=O)CCC(=O)O)CC[C@@](C)(CCC[C@H](C)CCC[C@H](C)CCCC(C)C)O2` [α-TOS, α -Tocopheryl succinate], the IC50 in the assay with CII [5] is 42 µM.
In the case of `CNC(=O)c1ccc(N2C(=S)N(c3cnc(C#N)c(C(F)(F)F)c3)C(=O)C23CCC3)cc1F` [apalutamide], in [6], the IC50 is 77 ± 17 µM.
`O=S1(=O)N=C(NCCCc2ccccc2)Nc2ccc(Br)cc21` [Compound 23c, 7-Bromo-3-((3-phenylpropyl)amino)-4H-benzo[e][1,2,4]thiadiazine 1,1-dioxide]: in assay [1], the “% Inhibition CII (100 μM)” value is 46 ±13.4% and the inhibition at 100 µM was found to be 47%. The “reduction of 22Rv1 cell viability” value in [3] is 42%. The “SI (Selectivity Index)” value in the assay with TNBC MDA-MB-468 cells is reported as 7.75. For the same compound, the IC50 in assay [4] was 71.8 ± 8.2 µM.
Turning to `COc1[nH]c(=O)c(C(=O)[C@@H](C)C[C@H](C)[C@@H](Cl)CCl)c(O)c1OC` [Atpenin A5, atpenin A5], the inhibition at 0.1 µM in assay [1] (read-out: % inhibition of CII at 0.1 μM) came to 93%. The IC50 in the assay on CII [5] (positive control) was 0.0033 µM; in the assay with CII [5] (ubiquinone binding site (IIQ)), 0.0036 to 0.01 µM.
For `CC(O)c1cc(C(=O)N[C@@H](C)Cn2ccc(-c3ccc(C#N)c(Cl)c3)n2)[nH]n1` (stereo partly shown) [darolutamide], the IC50 in [6] is 46 ± 10 µM.
